Results taken from patent publication US8697655B2, “Method of selecting polypeptide sequence, and metal oxide or silicon-containing compound binding peptide and use thereof” (Riken, priority 2010, dated 2014).

Test: Binding of P-EGFs to TiO2 plate, anti-EGF antibody chemiluminescence detection
Conditions: about 2.0 ng, 10 μl in TBS pH 7.5; washed 3 times with TBS-T; anti-human EGF antibody and HRP secondary
Description: Subsequently, in accordance with a scheme in the left in FIG. 4-2, various P-EGF solutions (about 2.0 ng, 10 μl in TBS, pH 7.5) were added on a TiO2 plate (a plate produced by vapor deposition of titanium on the surface of a glass plate with a diameter of 15 mm and a thickness of 0.6 mm (manufactured by Matsunami Glass Ind., Ltd.) (the vapor deposition step was requested to Osaka Vacuum Industrial Co., Ltd.) was used); and a washing operation (TBS-T buffer, pH 7.5) was repeated 3 times. And, after blocking with 0.1% BSA solution, an anti-human EGF antibody was added as a primary antibody. Furthermore, after the washing operation (TBS-T buffer, pH 7.5) was repeated 3 times, an anti-mouse IgG antibody HRP conjugate was added as a secondary antibody. At the end, using a luminescent phenomenon by a reaction between a chemiluminescence reagent and HRP as an index, the presence of protein immobilized on the TiO2 plate was detected. […]
First, in accordance with a scheme in the left in FIG. 7-1, various P-EGF solutions (about 2.0 ng, 10 μl in TBS, pH 7.5) were added on a TiO2 plate and a washing operation (TBS-T buffer, pH 7.5) was repeated 3 times. […] At the end, using a luminescent phenomenon by a reaction between a chemiluminescence reagent and HRP as an index, the presence of protein immobilized on the TiO2 plate was detected.

With “EGF: EGF to which a peptide was not fused” the “TiO2 plate binding (luminescent phenomenon of protein immobilized on the plate)” value was “did not exhibit TiO2 binding”.
